From US20060211747A1, “Methods of screening for compounds which inhibit the activity of Cdc34 in a zinc-mediated manner and compounds obtained by this method” (priority 2004, published 2006)
Like-named read-outs stand apart in the source and are kept apart here. One block for each compound: values may come before it.

Experiments:
Type in all cases: biochemical
Cdc34-FLAG = molecular target: T1, Cdc34-FLAG (Homo sapiens, UniProt P49427); experiment: Cdc34 thioester assay in the presence of the chelating agents phenantroline or TSQ (zinc depletion / re-addition); conditions: for IC50: read-out: Compound I IC50
T1 construct: GST with Factor Xa cleavage site (N, cleaved yes); made in house; host or cells: baculovirus, High Five insect cells
T1 sequence (P49427 1-236): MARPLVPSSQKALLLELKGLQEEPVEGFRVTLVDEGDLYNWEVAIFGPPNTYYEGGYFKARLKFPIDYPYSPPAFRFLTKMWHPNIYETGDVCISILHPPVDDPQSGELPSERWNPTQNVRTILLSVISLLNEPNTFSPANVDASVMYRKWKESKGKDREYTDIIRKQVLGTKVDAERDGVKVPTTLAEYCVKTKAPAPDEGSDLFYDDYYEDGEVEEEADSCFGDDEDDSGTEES
Method: (§1) Cdc34 thioester assay: Here, we describe an assay, based on time resolved fluorescence, to monitor the formation of the thioester intermediate between ubiquitin and the ubiquitin-conjugating enzyme Cdc34. The assay is aimed at screening for inhibitors of Cdc34 thioester formation and requires Eu-labelled ubiquitin (Eu—Ub), GST-E1 and Cdc34-FLAG. • Mix: In non-absorbing plates • 10 μl Test compound 5×conc. in 5% DMSO • 30 μl Cdc34-FLAG (20.8 nM) in 1×TEB (no ATP) • Incubate 10 min at RT • Add: 10 μl Eu—Ub (31.2 nM), GST-E1 (125 nM) in 1×TEB+ATP (Pre-incubated 10 min at RT). • Incubate 30 min at RT • Final Concentrations: Test compound 50/12.5/3.13/0.78/0.2/0.05 μM • Cdc34-FLAG 12.5 nM • Eu—Ub 6.25 nM • GST-E1 25 nM • Transfer: 45 μl To streptavidin coated plate containing 50 μl / well Superblock−TBS+1 mM NEM+100 nM biotinylated anti-FLAG antibody • Incubate 2 hours at RT • Wash 6×200 μl/well with 1× Wallac Wash Solution • Add 200 μl/well Wallac Enhancer Solution • Mix 5 min • Read • Positive Control: no test compound, 10 μl 5% DMSO • Negative Control: no Cdc34-FLAG, 30 μl 1×TEB (no ATP)
Cdc34 thioester assay in the presence of the chelating agents phenantroline or TSQ In order to deplete Cdc34 from zinc prior to measuring the inhibitory activity of the test compounds, the Cdc34 thioester assay described above was modified as follows. • Mix: In non-absorbing plates on ice • 10 μl Cdc34-FLAG (62.5 nM) in 1×TEB (no ATP) • 10 μl 5× Phenanthroline/5×TSQ/buffer • 10 μl 5×ZnCl2/buffer • Incubate 10 min on ice • Add: 10 μl Test compound 5×conc. in 5% DMSO • 10 μl Eu—Ub (31.2 nM), GST-E1 (125 nM) in 1×TEB+ATP (Pre-incubated 10 min at RT). • Incubate 30 min at RT • Phenanthroline (Sigma # P-9375) • TSQ (Molecular Probes # M-688)
(§2) The IC50 is defined as 50% inhibition of E2-ubiquitin thioester formation, estimated as the difference in fluorescence obtained in the presence or absence of E2 (Cdc34, UbcH5 or UbcH10).

[1] = molecular target: T2, UbcH5-Strep (SwissProt P51668) (Homo sapiens, UniProt P51668); experiment: UbcH5 thioester assay; conditions: thioester formation; n=2
T2 construct: GST with Factor Xa cleavage site (N, cleaved yes); made in house; host or cells: baculovirus, High Five insect cells
Excerpt: (§3) The assays measuring the formation of the thioester intermediate between ubiquitin and the ubiquitin conjugating enzymes Cdc34 (SwissProt P49427) UbcH5 (SwissProt P51668) and UbcH10 (SwissProt O00762) are described below.
(§4) UbcH5 and UbcH10 thioester assays: Here, we describe an assay, based on time resolved fluorescence, to monitor the formation of the thioester intermediate between ubiquitin and the ubiquitin-conjugating enzymes UbcH5, respectively UbcH10. […]

[2] = molecular target: T3, Cdc34-FLAG (ubiquitin conjugating enzyme Cdc34, SwissProt P49427) (Homo sapiens, UniProt P49427); experiment: Cdc34 thioester assay (time resolved fluorescence)
T3 construct: GST with Factor Xa cleavage site (N, cleaved yes); made in house; host or cells: baculovirus, High Five insect cells
T3 sequence (P49427 1-236): T1 sequence (P49427 1-236)
Method: as §1, §2

[3] = molecular target: T4, UbcH10-Strep (SwissProt O00762) (Homo sapiens, UniProt O00762); experiment: UbcH10 thioester assay; conditions: thioester formation; n=2
T4 construct: GST with Factor Xa cleavage site (N, cleaved yes); made in house; host or cells: baculovirus, High Five insect cells
T4 sequence (O00762 1-179): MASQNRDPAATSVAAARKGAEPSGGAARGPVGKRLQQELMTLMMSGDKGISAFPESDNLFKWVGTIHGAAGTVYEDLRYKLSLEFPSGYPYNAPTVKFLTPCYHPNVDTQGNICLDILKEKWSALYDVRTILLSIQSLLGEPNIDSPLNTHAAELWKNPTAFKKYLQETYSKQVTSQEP
Excerpt: as §3, §4

T2 sequence (P51668 whole entry): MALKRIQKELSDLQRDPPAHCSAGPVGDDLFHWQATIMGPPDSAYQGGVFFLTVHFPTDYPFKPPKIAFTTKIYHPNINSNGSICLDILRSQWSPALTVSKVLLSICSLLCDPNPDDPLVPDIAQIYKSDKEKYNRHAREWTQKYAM

IC50 (Cdc34-FLAG; 1,10-Phenanthroline 0 μM, ZnCl2 0 nM): 740 nM
IC50 (Cdc34-FLAG; 1,10-Phenanthroline 0 μM, ZnCl2 100 nM): 550 nM
IC50 (Cdc34-FLAG; 1,10-Phenanthroline 0 μM, ZnCl2 200 nM): 360 nM
IC50 (Cdc34-FLAG; 1,10-Phenanthroline 2 μM, ZnCl2 0 nM): 1400 nM
IC50 (Cdc34-FLAG; 1,10-Phenanthroline 2 μM, ZnCl2 100 nM): 640 nM
IC50 (Cdc34-FLAG; 1,10-Phenanthroline 2 μM, ZnCl2 200 nM): 710 nM
IC50 (Cdc34-FLAG; 1,10-Phenanthroline 10 μM, ZnCl2 0 nM): 8800 nM
IC50 (Cdc34-FLAG; 1,10-Phenanthroline 10 μM, ZnCl2 100 nM): 4600 nM
IC50 (Cdc34-FLAG; 1,10-Phenanthroline 10 μM, ZnCl2 200 nM): 1380 nM
inhibitory activity on Cdc34 thioester formation (Cdc34-FLAG; Cdc34 pretreated with 50 μM phenanthroline (FIG. 3)): completely abolished
IC50 (Cdc34-FLAG; TSQ 0 μM, ZnCl2 0 nM): 640 nM
IC50 (Cdc34-FLAG; TSQ 0 μM, ZnCl2 100 nM): 600 nM
IC50 (Cdc34-FLAG; TSQ 0 μM, ZnCl2 200 nM): 700 nM
IC50 (Cdc34-FLAG; TSQ 2 μM, ZnCl2 0 nM): 4200 nM
IC50 (Cdc34-FLAG; TSQ 2 μM, ZnCl2 100 nM): 950 nM
IC50 (Cdc34-FLAG; TSQ 2 μM, ZnCl2 200 nM): 1300 nM
IC50 (Cdc34-FLAG; TSQ 10 μM, ZnCl2 0 nM): 10600 nM
IC50 (Cdc34-FLAG; TSQ 10 μM, ZnCl2 100 nM): 3300 nM
IC50 (Cdc34-FLAG; TSQ 10 μM, ZnCl2 200 nM): 600 nM
IC50 [1]: > 50000 nM
IC50 ([2]; thioester formation, mean of n=5, read-out: Cdc34-FLAG IC50): 390 nM
IC50 [3]: > 50000 nM
SMILES: Cc1cc(C)n(C(=O)c2cn3c(C)csc3n2)n1 [Compound I, (3,5-dimethyl-pyrazol-1-yl)-(3-methyl-imidazo[2,1-b]thiazol-6-yl)-methanone]
effect of phenantroline on inhibitory activity of the compounds (Cdc34-FLAG; compound added to Cdc34 before phenantroline (data not shown)): failed to abolish the inhibitory activity

IC50 ([2]; read-out: IC50 values as determined in the Cdc34 thioester assays): ≤ 1000 nM
SMILES: Cc1cc(C)n(C(=O)c2cn3ccsc3n2)n1 [Compound II, (3,5-Dimethyl-pyrazol-1-yl)-imidazo[2,1-b]thiazol-6-yl-methanone]

IC50 [1]: > 50000 nM
IC50 [3]: > 50000 nM
SMILES: CCCc1csc2nc(C(=O)n3nc(C)cc3C)cn12 [Compound V, (3,5-dimethyl-pyrazol-1-yl)-(3-propyl-imidazo[2,1-b]thiazol-6-yl)-methanone]

effect per se on the ability of Cdc34 to undergo thioester formation with ubiquitin (Cdc34-FLAG; FIG. 3): does not affect per se
SMILES: c1cnc2c(c1)ccc1cccnc12 [phenathroline, 1,10-Phenanthroline, reference compound]
